From the supplement of paper PMC13380429
± gives the standard deviation of the averaged measurements.

How the values were obtained:
Settings in all cases: 72 h
Vero E6 [1] = experiment: drug sensitivity score (DSS) for viability; higher = more toxic; extreme values may be limits of the assay
HepG2 [2] = experiment: as above
Caco-2 [3] = experiment: as above
Calu-3 [4] = experiment: as above
U2OS [5] = experiment: as above
Vero E6 [6] = experiment: relative viability EC50 (midpoint between 100% and the lowest measured viability); higher = less toxic
HepG2 [7] = experiment: as above
Caco-2 [8] = experiment: as above
Calu-3 [9] = experiment: as above
U2OS [10] = experiment: as above
Vero E6 [11] = experiment: cell viability relative to DMSO; higher = less toxic
HepG2 [12] = experiment: as above
Caco-2 [13] = experiment: as above
Calu-3 [14] = experiment: as above
U2OS [15] = experiment: as above

Structure (SMILES)	drug sensitivity score (Vero E6 [1])	drug sensitivity score (HepG2 [2])	drug sensitivity score (Caco-2 [3])	drug sensitivity score (Calu-3 [4])	drug sensitivity score (U2OS [5])	relative viability EC50 (Vero E6 [6])	relative viability EC50 (HepG2 [7])	relative viability EC50 (Caco-2 [8])	relative viability EC50 (Calu-3 [9])	relative viability EC50 (U2OS [10])	cell viability (Vero E6 [11]; 1 nM)	cell viability (Vero E6 [11]; 10 nM)	cell viability (Vero E6 [11]; 100 nM)	cell viability (Vero E6 [11]; 1000 nM)	cell viability (Vero E6 [11]; 10000 nM)	cell viability (HepG2 [12]; 1 nM)	cell viability (HepG2 [12]; 10 nM)	cell viability (HepG2 [12]; 100 nM)	cell viability (HepG2 [12]; 1000 nM)	cell viability (HepG2 [12]; 10000 nM)	cell viability (Caco-2 [13]; 1 nM)	cell viability (Caco-2 [13]; 10 nM)	cell viability (Caco-2 [13]; 100 nM)	cell viability (Caco-2 [13]; 1000 nM)	cell viability (Caco-2 [13]; 10000 nM)	cell viability (Calu-3 [14]; 1 nM)	cell viability (Calu-3 [14]; 10 nM)	cell viability (Calu-3 [14]; 100 nM)	cell viability (Calu-3 [14]; 1000 nM)	cell viability (Calu-3 [14]; 10000 nM)	cell viability (U2OS [15]; 1 nM)	cell viability (U2OS [15]; 10 nM)	cell viability (U2OS [15]; 100 nM)	cell viability (U2OS [15]; 1000 nM)	cell viability (U2OS [15]; 10000 nM)
CCn1cc(C(=O)O)c(=O)c2cc3c(cc21)OCO3 [oxolinic-acid]	0	0	0.6	0	0	> 10 µM	> 10 µM	> 10 µM	> 10 µM	> 10 µM	98.5%	109%	109%	93.6%	95%	97%	108%	113%	108%	94.1%	109%	98.9%	85.3%	102%	78.4%	89.1%	99.9%	94.2%	106%	93.2%	101%	101%	96.2%	103%	97%
CCOC(=O)c1ncn2c1[C@@H]1CCCN1C(=O)c1cc(OC)ccc1-2 [L-655,708]	0	0	0	0	0	> 10 µM	> 10 µM	> 10 µM	> 10 µM	> 10 µM	94.6%	95%	92.3%	97.9%	111%	90.7%	100%	104%	98.7%	106%	97.8%	95.8%	118%	95.1%	107%	101%	88%	96.3%	96.7%	105%	100%	98.9%	97.5%	99.2%	104%
NC(=O)C[S+]([O-])C(c1ccccc1)c1ccccc1 (stereo not given) [MODAFINIL]	0	0.55 ± 0.78	0	0	0	> 10 µM	> 10 µM	> 10 µM	> 10 µM	> 10 µM	97.3 ± 6%	103 ± 14%	96.2 ± 15%	88.6 ± 4%	104 ± 5.5%	102 ± 17%	103 ± 1.9%	99.2 ± 12%	96.1 ± 15%	95.3 ± 4.4%	103 ± 3.7%	99.5 ± 2.2%	109 ± 10%	100.4 ± 0.42%	97 ± 2.3%	93 ± 6.5%	99.4 ± 0.57%	99.3 ± 6.7%	102.2 ± 0.35%	95.8 ± 7.3%	99.2 ± 1.5%	97.8 ± 2.8%	99.7 ± 2.9%	98.2 ± 3%	100 ± 4.6%
CCn1c(=O)c2c(nc(/C=C/c3ccc(OC)c(OC)c3)n2C)n(CC)c1=O [istradefylline]	0	0	0	0	0	> 10 µM	> 10 µM	> 10 µM	> 10 µM	> 10 µM	103%	97.1%	93.6%	96.4%	104%	97.1%	94.1%	101%	98.9%	112%	97.7%	89.7%	104%	103%	106%	87.5%	93.8%	94.4%	101%	103%	102%	97.9%	101%	104%	102%
Cl/C(=C\n1cncn1)c1ccc(Cl)cc1Cl [loreclezole]	0	0.5	0	0	0	> 10 µM	> 10 µM	> 10 µM	> 10 µM	> 10 µM	101%	102%	98.8%	101%	96.2%	96.5%	98.9%	104%	90%	87.7%	91.1%	92.8%	94.6%	95%	104%	100%	94.7%	105%	113%	97.6%	95.9%	100%	96%	99.7%	108%
CC(=O)O[C@H]1C[C@@H]2CC[C@@H]3[C@H](CC[C@@]4(C)[C@H]3C[C@H](N3CC[N+](C)(C)CC3)[C@@H]4OC(C)=O)[C@@]2(C)C[C@@H]1N1CC[N+](C)(C)CC1 [pipecuronium]	0	0	0	0	0	> 10 µM	> 10 µM	> 10 µM	> 10 µM	> 10 µM	100%	94.7%	92.5%	95.5%	99.2%	97.8%	94.2%	97.4%	96.8%	92.3%	93.7%	103%	91.2%	96.7%	97%	87.8%	102%	90.2%	111%	96.7%	101%	104%	97.7%	105%	96.9%
Cc1nccn1CC1CCc2c(c3ccccc3n2C)C1=O (stereo not given) [ondansetron]	0	0	0	0	0	> 10 µM	> 10 µM	> 10 µM	> 10 µM	> 10 µM	101%	97.4%	103%	95.6%	103%	95.6%	83.5%	97%	105%	93.3%	102%	99.4%	94.1%	81.2%	104%	84.8%	90.1%	81.6%	97.6%	89.2%	96.5%	99.4%	103%	99.4%	102%
O=C(O)[C@H]1CN(C/C=C/P(=O)(O)O)CCN1 [midafotel]	0	0	0	0	0	> 10 µM	> 10 µM	> 10 µM	> 10 µM	> 10 µM	95.5%	93.9%	95.6%	91.9%	106%	97.5%	94%	104%	93.1%	107%	102%	101%	97.4%	102%	98.3%	97.6%	94.8%	105%	111%	97.4%	96.3%	104%	99%	103%	106%
[O-][n+]1cccc(CO)c1 [mepiroxol]	0	0	0	0	0	> 10 µM	> 10 µM	> 10 µM	> 10 µM	> 10 µM	92.1%	97.9%	89.3%	98.9%	108%	90.9%	118%	104%	96.3%	97%	97.3%	95.1%	94.3%	104%	103%	103%	112%	99.4%	109%	104%	100%	99.2%	104%	99.2%	99.2%
C=CCn1c(=O)c2cnc(Nc3ccc(N4CCN(C)CC4)cc3)nc2n1-c1cccc(C(C)(C)O)n1 [MK-1775]	9.7	13.8	12.4	13.1	14.7	0.981 µM	0.466 µM	0.399 µM	0.218 µM	0.49 µM	100%	94.7%	94.1%	57.4%	14.2%	99%	89.5%	91.2%	33.3%	10.2%	106%	99.4%	96.1%	35.4%	25.9%	108%	93.4%	70.8%	50.9%	28.8%	102%	95.7%	97.6%	21.3%	5.8%
NC1=N[C@@](c2cccc(-c3cncnc3)c2)(c2ccnc(C(F)F)c2)c2cccc(F)c21 [AZD3839]	0	0	0	0	0	> 10 µM	> 10 µM	> 10 µM	> 10 µM	> 10 µM	110%	106%	99.9%	102%	104%	108%	103%	106%	118%	97.3%	107%	102%	101%	96.1%	97%	102%	98.4%	99.7%	98.7%	109%	95.4%	99%	106%	97.9%	94.5%
COc1cccc(-c2ccc([C@@H](Oc3cc(-c4ccc(C[C@H](N)C(=O)O)cc4)nc(N)n3)C(F)(F)F)cc2)c1 [LX1031]	0	0	0	0	0	> 10 µM	> 10 µM	> 10 µM	> 10 µM	> 10 µM	105%	89.6%	101%	98.8%	106%	111%	100%	111%	99.3%	102%	91.5%	96.7%	94.1%	92.9%	101%	99.3%	98.2%	102%	97.3%	103%	96.4%	93.4%	95.2%	102%	99.9%
O=C(O)c1ccc(S(=O)(=O)N(Cl)Cl)cc1 [halazone]	0	0	3.5	0	0	> 10 µM	> 10 µM	> 10 µM	> 10 µM	> 10 µM	107%	108%	106%	97%	96.7%	97.1%	94.1%	110%	107%	100%	112%	93.5%	84.2%	90.1%	90.8%	106%	99.6%	95.4%	94.7%	107%	101%	95.6%	98.7%	95.6%	102%
c1ccc2c(c1)Sc1ccccc1N2C[C@H]1CN2CCC1CC2 [levomequitazine]	0	0.2	0.3	0	0	> 10 µM	> 10 µM	> 10 µM	> 10 µM	> 10 µM	115%	98.2%	99.3%	98.6%	93.5%	104%	97.7%	97.9%	98.2%	86.9%	99.6%	106%	106%	105%	82.6%	105%	104%	102%	108%	86.3%	97.6%	102%	97.8%	101%	90.4%
CCOP(=S)(OCC)Oc1nc(Cl)c(Cl)cc1Cl [chlorpyrifos]	0	0	0	0	0	> 10 µM	> 10 µM	> 10 µM	> 10 µM	> 10 µM	102%	90.2%	109%	106%	94.2%	93.3%	100%	90.3%	96.3%	93.7%	100%	102%	97.5%	103%	107%	89.7%	93.6%	90.1%	97%	96.2%	92.3%	102%	94.9%	94.8%	99.4%
